pIC50: −log10 of the molar value. Structures can show the parent of a compound that is named as a salt.

The first test deals with Plasmodium falciparum 3D7 strain. The test can be described thus: P. falciparum 3D7 asexual blood stage assay (SYBR green readout). The conditions noted are these: Plasmodium falciparum, 3D7, Erythrocyte, 72 h. Type of test: cell-based. Summed up: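 P. falciparum 3D7 in A+ erythrocytes (5% haematocrit, 0.5% parasitaemia) exposed 72 h at 37 °C under 1% O2/3% CO2 to 20-point 1.5-fold titrations, 50,000–15 nM in 0.5% DMSO. SYBR green lysis overnight, fluorescence 485/528 nm; normalized to mefloquine and DMSO, EC50 from biphasic two-site fit.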
The term pIC50 denotes the negative decadic logarithm of the IC50, by convention in mol/L. As for `C[C@@H]1C[C@H](N2C(=N)N[C@](C)(c3cccc(NC(=O)c4ccc(OCC(F)(F)F)nc4)c3Cl)CC2=O)CCO1` (relative stereo) [Example 58, N-(2-Chloro-3-{(4S)-2-imino-4-methyl-1-[(2R*,4R*)-2-methyl-tetrahydropyran-4-yl]-6-oxo-hexahydropyrimidin-4-yl]phenyl)-6-(2,2,2-trifluoroethoxy)pyridine-3-carboxamide hydrochloride], the pIC50 was 6.36.
Same read-out and setting: to `C[C@@H]1C[C@H](N2C(=N)N[C@](C)(c3cccc(NC(=O)c4ccc(C(F)(F)F)nn4)c3Cl)CC2=O)CCO1` (relative stereo) [Example 59, N-(2-Chloro-3-{(4S)-2-imino-4-methyl-1-[(2R*,4R*)-2-methyl-tetrahydropyran-4-yl]-6-oxo-hexahydropyrimidin-4-yl]phenyl)-6-(trifluoromethyl)pyridazine-3-carboxamide hydrochloride] belongs 6.94.
Still for that read-out and setting: under `C[C@@H]1C[C@H](N2C(=N)N[C@](C)(c3cccc(NC(=O)c4cccnc4C(F)(F)F)c3Cl)CC2=O)CCO1` (relative stereo) [Example 61, N-(2-Chloro-3-{(4S)-2-imino-4-methyl-1-[(2R*,4R*)-2-methyl-tetrahydropyran-4-yl]-6-oxo-hexahydropyrimidin-4-yl}phenyl)-2-(trifluoromethyl)pyridine-3-carboxamide hydrochloride] stands 6.35; under `C[C@@H]1C[C@H](N2C(=N)N[C@](C)(c3cccc(NC(=O)c4nnc5ccccn45)c3Cl)CC2=O)CCO1` (relative stereo) [Example 62, N-(2-Chloro-3-{(4S)-2-imino-4-methyl-1-[(2R*,4R*)-2-methyl-tetrahydropyran-4-yl]-6-oxo-hexahydropyrimidin-4-yl]phenyl)-[1,2,4]triazolo[4,3-a]pyridine-3-carboxamide hydrochloride], 7.64.
Still for that read-out and setting: under `C[C@@H]1C[C@H](N2C(=N)N[C@](C)(c3cccc(NC(=O)c4ccc(Cl)cn4)c3Cl)CC2=O)CCO1` (relative stereo) [Example 63, 5-Chloro-N-(2-chloro-3-{(4S)-2-imino-4-methyl-1-[(2R*,4R*)-2-methyltetrahydropyran-4-yl]-6-oxo-hexahydropyrimidin-4-yl]phenyl)-pyridine-2-carboxamide hydrochloride] stands 7.39.
On to `C[C@@H]1C[C@H](N2C(=N)N[C@](C)(c3cccc(NC(=O)c4ncc5ccccn45)c3Cl)CC2=O)CCO1` (relative stereo) [Example 65, N-(2-Chloro-3-{(4S)-2-imino-4-methyl-1-[(2R*,4R*)-2-methyl-tetrahydropyran-4-yl]-6-oxo-hexahydropyrimidin-4-yl]phenyl)-imidazo[1,5-a]pyridine-3-carboxamide hydrochloride], for which the pIC50 was 7.29.
Same read-out and setting: to `Cc1cncc(C(=O)Nc2cccc([C@]3(C)CC(=O)N([C@@H]4CCO[C@H](C)C4)C(=N)N3)c2Cl)n1` (relative stereo) [Example 66, N-(2-Chloro-3-{(4S)-2-imino-4-methyl-1-[(2R*,4R*)-2-methyl-tetrahydropyran-4-yl]-6-oxo-hexahydropyrimidin-4-yl}phenyl)-6-methylpyrazine-2-carboxamide hydrochloride] belongs 7.04.

Staying with this test, now noted: Plasmodium falciparum, Erythrocyte; P. falciparum 3D7 in human erythrocytes, 72 h incubation, SYBR green fluorescence; read-out: IC50.
Regarding `C[C@@H]1C[C@H](N2C(=N)N[C@](C)(c3cccc(NC(=O)c4ncn5ccccc45)c3Cl)CC2=O)CCO1` (relative stereo) [Example 60, N-(2-Chloro-3-{(4S)-2-imino-4-methyl-1-[(2,R*,4R*)-2-methyl-tetrahydropyran-4-yl]-6-oxo-hexahydropyrimidin-4-yl}phenyl)-imidazo[1,5-a]pyridine-1-carboxamide hydrochloride], the pIC50 is 6.91.
Same read-out and setting: to `C[C@@H]1C[C@H](N2C(=N)N[C@](C)(c3cccc(NC(=O)c4cc(F)c(F)cc4F)c3Cl)CC2=O)CCO1` (relative stereo) [Example 64, N-(2-Chloro-3-{(4S)-2-imino-4-methyl-1-[(2,R*,4R*)-2-methyl-tetrahydropyran-4-yl]-6-oxo-hexahydropyrimidin-4-yl}phenyl)-2,4,5-trifluorobenzamide hydrochloride] belongs 7.89.

The values are drawn from patent US20220289685A1, “ANTIMALARIAL HEXAHYDROPYRIMIDINE ANALOGUES” (UCB BIOPHARMA SRL, priority 2019, published 2022).
